Data from US12077503B2, “Substituted cyclic amides and their use as herbicides” (FMC CORPORATION, priority 2015, dated 2024).

Legend:
Format in all cases: in vivo
[1] = test system: giant foxtail (Setaria faberi); experiment: Test G Pre-Emergence Protocol; conditions: Setaria faberi, pre-emergence, 312 h, evaluated after 13 days; for pest or weed control at 15.625 g/ha: 15.625 g ai/ha; for pest or weed control at 15.625 g/ha / pest or weed control at 250 g/ha: read-out: Foxtail, Giant damage rating (100=total damage to plant; 0=no damage to plant); for pest or weed control at 62.5 g/ha: 62.5 g ai/ha, 100=total damage to plant, 0=no damage to plant, read-out: plant damage rating, Foxtail, Giant; for pest or weed control at 250 g/ha: 250 g ai/ha
In short: (§1)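 Pre-emergence spray, 15.625/62.5/250 g/ha, vehicle acetone:water 50:50 + 0.5% Tween 20, applied 1 d after sowing. Glasshouse 24/16° C, 14 h light, 65% RH, watered twice daily. Visual damage rating at 13 d, 0–100 scale.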

[2] = test system: velvetleaf (Abutilon theophrasti); experiment: Test G Pre-Emergence Protocol; conditions: Abutilon theophrasti, pre-emergence, 312 h, evaluated after 13 days; for pest or weed control at 15.625 g/ha: 15.625 g ai/ha; for pest or weed control at 15.625 g/ha / pest or weed control at 250 g/ha: read-out: Velvetleaf damage rating (100=total damage to plant; 0=no damage to plant); for pest or weed control at 62.5 g/ha: 62.5 g ai/ha, 100=total damage to plant, 0=no damage to plant, read-out: plant damage rating, Velvetleaf; for pest or weed control at 250 g/ha: 250 g ai/ha
In short: as §1

[3] = test system: redroot pigweed (Amaranthus retroflexus); experiment: Test G Pre-Emergence Protocol; conditions: Amaranthus retroflexus, pre-emergence, 312 h, evaluated after 13 days; for pest or weed control at 15.625 g/ha: 15.625 g ai/ha; for pest or weed control at 15.625 g/ha / pest or weed control at 250 g/ha: read-out: Pigweed, Redroot damage rating (100=total damage to plant; 0=no damage to plant); for pest or weed control at 62.5 g/ha: 62.5 g ai/ha, 100=total damage to plant, 0=no damage to plant, read-out: plant damage rating, Pigweed, Redroot; for pest or weed control at 250 g/ha: 250 g ai/ha
In short: as §1

corn (Zea mays) [4] = experiment: Test G Pre-Emergence Protocol; conditions: Zea mays, pre-emergence, 312 h, evaluated after 13 days; for plant injury at 15.625 g/ha: 15.625 g ai/ha; for plant injury at 15.625 g/ha / plant injury at 250 g/ha: read-out: Corn damage rating (100=total damage to plant; 0=no damage to plant); for plant injury at 62.5 g/ha: 62.5 g ai/ha, 100=total damage to plant, 0=no damage to plant, read-out: plant damage rating, Corn; for plant injury at 250 g/ha: 250 g ai/ha
In short: as §1

[5] = test system: barnyardgrass (Echinochloa crus-galli); experiment: Test G Pre-Emergence Protocol; conditions: Echinochloa crus-galli, pre-emergence, 312 h, evaluated after 13 days; for pest or weed control at 15.625 g/ha: 15.625 g ai/ha, read-out: Barnyard grass damage rating (100=total damage to plant; 0=no damage to plant); for pest or weed control at 62.5 g/ha: 62.5 g ai/ha, 100=total damage to plant, 0=no damage to plant, read-out: plant damage rating, Barnyardgrass; for pest or weed control at 250 g/ha: 250 g ai/ha, read-out: Barnyardgrass damage rating (100=total damage to plant; 0=no damage to plant)
In short: as §1

[6] = test system: ivy-leaved morning glory (Ipomoea hederacea); experiment: Test G Pre-Emergence Protocol; conditions: Ipomoea, pre-emergence, 312 h, evaluated after 13 days; for pest or weed control at 15.625 g/ha: 15.625 g ai/ha, read-out: Morning-glory, Ivy-leaved damage rating (100=total damage to plant; 0=no damage to plant); for pest or weed control at 62.5 g/ha: 62.5 g ai/ha, 100=total damage to plant, 0=no damage to plant, read-out: plant damage rating, Morningglory, Ivy-leaved; for pest or weed control at 250 g/ha: 250 g ai/ha, read-out: Morningglory, Ivy-leaved damage rating (100=total damage to plant; 0=no damage to plant)
In short: as §1

[7] = test system: giant foxtail (Setaria faberi); experiment: Test G Post-Emergence Protocol; conditions: Setaria faberi, post-emergence, 312 h; for pest or weed control at 15.625 g/ha: 15.625 g ai/ha, evaluated after 13 days (100=total damage to plant; 0=no damage to plant), read-out: Foxtail, Giant damage rating; for pest or weed control at 62.5 g/ha: 62.5 g ai/ha, read-out: Foxtail, Giant damage rating (100=total damage to plant; 0=no damage to plant); for pest or weed control at 62.5 g/ha / pest or weed control at 250 g/ha: evaluated after 13 days; for pest or weed control at 250 g/ha: 250 g ai/ha, read-out: damage to plant, Foxtail, Giant (100=total damage to plant; 0=no damage to plant)
In short: (§2)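 Damage was rated 13 days after treatment from 0 (none) to 100 (plant killed). Compound was applied as a spray at 15.625, 62.5 or 250 g/ha in 50:50 acetone/water containing 0.5% Tween 20, onto 8-day-old potted plants kept in a glasshouse (24/16 °C, 14 h light, 65% humidity).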

[8] = test system: velvetleaf (Abutilon theophrasti); experiment: Test G Post-Emergence Protocol; conditions: Abutilon theophrasti, post-emergence, 312 h; for pest or weed control at 15.625 g/ha: 15.625 g ai/ha, evaluated after 13 days (100=total damage to plant; 0=no damage to plant), read-out: Velvetleaf damage rating; for pest or weed control at 62.5 g/ha: 62.5 g ai/ha, read-out: Velvetleaf damage rating (100=total damage to plant; 0=no damage to plant); for pest or weed control at 62.5 g/ha / pest or weed control at 250 g/ha: evaluated after 13 days; for pest or weed control at 250 g/ha: 250 g ai/ha, read-out: damage to plant, Velvetleaf (100=total damage to plant; 0=no damage to plant)
In short: as §2

[9] = test system: redroot pigweed (Amaranthus retroflexus); experiment: Test G Post-Emergence Protocol; conditions: Amaranthus retroflexus, post-emergence, 312 h; for pest or weed control at 15.625 g/ha: 15.625 g ai/ha, evaluated after 13 days (100=total damage to plant; 0=no damage to plant), read-out: Pigweed, Redroot damage rating; for pest or weed control at 62.5 g/ha: 62.5 g ai/ha, read-out: Pigweed, Redroot damage rating (100=total damage to plant; 0=no damage to plant); for pest or weed control at 62.5 g/ha / pest or weed control at 250 g/ha: evaluated after 13 days; for pest or weed control at 250 g/ha: 250 g ai/ha, read-out: damage to plant, Pigweed, Redroot (100=total damage to plant; 0=no damage to plant)
In short: as §2

corn (Zea mays) [10] = experiment: Test G Post-Emergence Protocol; conditions: Zea mays, post-emergence, 312 h; for plant injury at 15.625 g/ha: 15.625 g ai/ha, evaluated after 13 days (100=total damage to plant; 0=no damage to plant), read-out: Corn damage rating; for plant injury at 62.5 g/ha: 62.5 g ai/ha, read-out: Corn damage rating (100=total damage to plant; 0=no damage to plant); for plant injury at 62.5 g/ha / plant injury at 250 g/ha: evaluated after 13 days; for plant injury at 250 g/ha: 250 g ai/ha, read-out: damage to plant, Corn (100=total damage to plant; 0=no damage to plant)
In short: as §2

[11] = test system: barnyardgrass (Echinochloa crus-galli); experiment: Test G Post-Emergence Protocol; conditions: Echinochloa crus-galli, post-emergence, 312 h; for pest or weed control at 15.625 g/ha: 15.625 g ai/ha, evaluated after 13 days (100=total damage to plant; 0=no damage to plant), read-out: Barnyardgrass damage rating; for pest or weed control at 62.5 g/ha: 62.5 g ai/ha, read-out: Barnyardgrass damage rating (100=total damage to plant; 0=no damage to plant); for pest or weed control at 62.5 g/ha / pest or weed control at 250 g/ha: evaluated after 13 days; for pest or weed control at 250 g/ha: 250 g ai/ha, read-out: damage to plant, Barnyardgrass (100=total damage to plant; 0=no damage to plant)
In short: as §2

[12] = test system: ivy-leaved morning glory (Ipomoea hederacea); experiment: Test G Post-Emergence Protocol; conditions: Ipomoea, post-emergence, 312 h; for pest or weed control at 15.625 g/ha: 15.625 g ai/ha, evaluated after 13 days (100=total damage to plant; 0=no damage to plant), read-out: Morningglory, Ivy-leaved damage rating; for pest or weed control at 62.5 g/ha: 62.5 g ai/ha, read-out: Morningglory, Ivy-leaved damage rating (100=total damage to plant; 0=no damage to plant); for pest or weed control at 62.5 g/ha / pest or weed control at 250 g/ha: evaluated after 13 days; for pest or weed control at 250 g/ha: 250 g ai/ha, read-out: damage to plant, Morningglory, Ivy-leaved (100=total damage to plant; 0=no damage to plant)
In short: as §2

SMILES: COc1cccc(NC(=O)[C@H]2C(=O)N(C)C[C@@H]2c2ccc(C(F)(F)F)cc2)c1C (racemic) [Compound 1446]
- pest or weed control at 15.625 g/ha [1]: 0%
- pest or weed control at 62.5 g/ha [1]: 0%
- pest or weed control at 250 g/ha [1]: 40%
- pest or weed control at 15.625 g/ha [2]: 0%
- pest or weed control at 62.5 g/ha [2]: 0%
- pest or weed control at 250 g/ha [2]: 0%
- pest or weed control at 15.625 g/ha [3]: 0%
- pest or weed control at 62.5 g/ha [3]: 0%
- pest or weed control at 250 g/ha [3]: 0%
- plant injury at 15.625 g/ha (corn (Zea mays) [4]): 0%
- plant injury at 62.5 g/ha (corn (Zea mays) [4]): 0%
- plant injury at 250 g/ha (corn (Zea mays) [4]): 0%
- pest or weed control at 15.625 g/ha [5]: 0%
- pest or weed control at 62.5 g/ha [5]: 0%
- pest or weed control at 250 g/ha [5]: 0%
- pest or weed control at 15.625 g/ha [6]: 0%
- pest or weed control at 62.5 g/ha [6]: 0%
- pest or weed control at 250 g/ha [6]: 0%
- pest or weed control at 15.625 g/ha [7]: 0%
- pest or weed control at 62.5 g/ha [7]: 0%
- pest or weed control at 250 g/ha [7]: 0%
- pest or weed control at 15.625 g/ha [8]: 0%
- pest or weed control at 62.5 g/ha [8]: 0%
- pest or weed control at 250 g/ha [8]: 0%
- pest or weed control at 15.625 g/ha [9]: 0%
- pest or weed control at 62.5 g/ha [9]: 0%
- pest or weed control at 250 g/ha [9]: 0%
- plant injury at 15.625 g/ha (corn (Zea mays) [10]): 0%
- plant injury at 62.5 g/ha (corn (Zea mays) [10]): 0%
- plant injury at 250 g/ha (corn (Zea mays) [10]): 0%
- pest or weed control at 15.625 g/ha [11]: 0%
- pest or weed control at 62.5 g/ha [11]: 0%
- pest or weed control at 250 g/ha [11]: 0%
- pest or weed control at 15.625 g/ha [12]: 0%
- pest or weed control at 62.5 g/ha [12]: 0%
- pest or weed control at 250 g/ha [12]: 0%

SMILES: CN1C[C@@H](c2ccc(C(F)(F)F)cc2)[C@H](C(=O)Nc2cc(O)nc(C(F)(F)F)n2)C1=O (racemic) [Compound 1614]
- pest or weed control at 15.625 g/ha [1]: 0%
- pest or weed control at 62.5 g/ha [1]: 0%
- pest or weed control at 250 g/ha [1]: 0%
- pest or weed control at 15.625 g/ha [2]: 0%
- pest or weed control at 62.5 g/ha [2]: 0%
- pest or weed control at 250 g/ha [2]: 70%
- pest or weed control at 15.625 g/ha [3]: 0%
- pest or weed control at 62.5 g/ha [3]: 0%
- pest or weed control at 250 g/ha [3]: 80%
- plant injury at 15.625 g/ha (corn (Zea mays) [4]): 0%
- plant injury at 62.5 g/ha (corn (Zea mays) [4]): 0%
- plant injury at 250 g/ha (corn (Zea mays) [4]): 0%
- pest or weed control at 15.625 g/ha [5]: 0%
- pest or weed control at 62.5 g/ha [5]: 0%
- pest or weed control at 250 g/ha [5]: 0%
- pest or weed control at 15.625 g/ha [6]: 0%
- pest or weed control at 62.5 g/ha [6]: 0%
- pest or weed control at 250 g/ha [6]: 0%
- pest or weed control at 15.625 g/ha [7]: 0%
- pest or weed control at 62.5 g/ha [7]: 0%
- pest or weed control at 250 g/ha [7]: 0%
- pest or weed control at 15.625 g/ha [8]: 0%
- pest or weed control at 62.5 g/ha [8]: 0%
- pest or weed control at 250 g/ha [8]: 20%
- pest or weed control at 15.625 g/ha [9]: 0%
- pest or weed control at 62.5 g/ha [9]: 0%
- pest or weed control at 250 g/ha [9]: 80%
- plant injury at 15.625 g/ha (corn (Zea mays) [10]): 0%
- plant injury at 62.5 g/ha (corn (Zea mays) [10]): 0%
- plant injury at 250 g/ha (corn (Zea mays) [10]): 0%
- pest or weed control at 15.625 g/ha [11]: 0%
- pest or weed control at 62.5 g/ha [11]: 0%
- pest or weed control at 250 g/ha [11]: 0%
- pest or weed control at 15.625 g/ha [12]: 0%
- pest or weed control at 62.5 g/ha [12]: 0%
- pest or weed control at 250 g/ha [12]: 0%
